According to patent publication US5350748A, “3-thio or amino substituted-benzo[b]thiophene-2-carboxamides and 3-oxygen, thio, or amino substituted-benzofuran-2-carboxamides as inhibitors of cell adhesion” (Warner-Lambert Company, priority 1993, dated 1994):

test system: HIV-1 activation in OM-10.1 cells; assay: not given; settings: poster NCDDG/AIDS, San Diego, 1991; some 48 compounds evaluated; cited from earlier work

| Compound | inhibition of activation of HIV-1 in OM-10.1 cells |
| --- | --- |
| Cc1cn([C@H]2C[C@H](F)[C@@H](CO)O2)c(=O)[nH]c1=O [3'-fluoro-3'-deoxythymidine (FLT), 3'-fluoro-3'-deoxythymidine] | modest inhibitors of the activation of HIV-1 |
| CC(=O)N(O)CCCCCNC(=O)CCC(=O)N(O)CCCCCNC(=O)CCC(=O)N(O)CCCCCN [desferrioxamine] | modest inhibitors of the activation of HIV-1 |
| interferon Y: interferon Y, considered modest inhibitor of the activation of HIV-1 (probably interferon gamma) | modest inhibitors of the activation of HIV-1 |

test system: HIV-1 activation in OM-10.1 cells; assay: Inhibition of activation of latent HIV-1 in chronically infected OM-10.1 cells; type: cell-based; settings: Human immunodeficiency virus 1
Text: The cellular pathways involved in mediating the activating signal from the plasma membrane to the integrated virus, resulting in HIV-1 expression, are much less clear. Recently, the development of a reliable and simple system for evaluating compounds that could prevent activation of latent HIV was reported at the National […] (NCDDG)/AIDS by P. Feorino, S. T. Butera, T. M. Folks, and R. F. Schinazi, San Diego, Calif., Nov. 3-7, 1991. The assay system employed the OM-10.1 cell line, a unique chronically-infected promyelocytic clone which remains CD4+ until HIV-1 activation with tumor necrosis factor-α. The expression of CD4+ on the cell surface and the activity of reverse transcriptase are used as markers for quantitating viral expression. Alternatively, other HIV markers, such as protease activity, which are known to those of skill in the art can be used. OM-10.1 cells remain CD4^+ until viral activation and respond to tumor necrosis factor induction, and therefore, these cultures are used to conveniently and rapidly examine pharmacologics for an ability to prevent CD4^+ down modulation (decrease in expression of CD4^+ on the cell surface) and HIV-1 expression.
A variety of compounds known to have antiviral properties against either acutely or chronically infected cells were evaluated for their ability to inhibit HIV expression in these OM-10.1 cells. […]

| Compound | IC50 |
| --- | --- |
| COc1ccc2sc(C(N)=O)c(SC(C)C)c2c1 [Example 1, 5-Methoxy-3-[(1-methylethyl)thio]benzo[b]thiophene-2-carboxamide] | 0.4 µM |

test system: human neutrophil adhesion to TNF-α-stimulated human umbilical vein endothelial cells (HUVEC); assay: Modified method: inhibition of human neutrophil adhesion to TNF-α-stimulated human umbilical vein endothelial cells (calcein-labeled neutrophils); type: cell-based; settings: 33 μM, neutrophils labeled with calcein, read-out: Adhesion ECA, % inhibition
Protocol: (§1) The 3-thiol, thioether, amino, alkylamino, or arylamino-benzo[b]thiophene-2-carboxamides and 3-alkoxy, aryloxy, thiol, thioether, amino, alkylamino, or arylamino-benzofuran-2-carboxamides have been shown in an in vitro assay to prevent the adhesion of neutrophils to human umbilical vein endothelial cells (HUVECS) stimulated with TNF-α. In this assay, HUVECS are stimulated with TNF-α for 4 hours, after which the cells are assayed for their ability to adhere to human neutrophils labeled with either ^51 Cr or calcein, a fluorescent dye. The details of this assay are described in the DETAILED DESCRIPTION.
(§2) Neutrophils were isolated from anticoagulant-treated venous blood obtained from healthy human volunteers according to the method of Ferrante and Thong [J. Immunol. Methods 24, 389-93 (1978)]. The cell preparations consisted of greater than 98% neutrophils.
Modified Method for Determining the Inhibition of Human Neutrophil Adhesion to TNF-α, IL-1α, and LPS Stimulated Human Umbilical Vein Endothelial Cells
The previous assay using ^51 Cr labeled human neutrophils has been modified. The neutrophils are now labeled with the fluorescent dye calcein. The current method allows for quantification of neutrophil adherence by fluorescence spectroscopy.
Second passage HUVEC (Clonetics Corporation, San Diego, Calif., CC-2617) were seeded into Coring (Corning glass works, Corning, N.Y.) 96-well cell culture plates at approximately 5×10^3 cells/well and grown to confluency in supplemented endothelial basal medium (EBM, MCDB-131, Clonetics, 10 ng/mL EGF, 1 μg/mL hydrocortisone, 0.4% bovine brain extract, 5% Fetal Bovine Serum). One day prior to running the assay, typically 3 days postseeding, the cultures were refed with 0.2 mL/well supplemented EBM (S-EBM).
Test compounds were prepared as 10 mL stock solutions at a concentration of 1.0 mM. The compounds were initially solubilized in 0.1 mL DMSO followed by the addition of 9.9 mL S-EBM. The drug preparations were then diluted in one step to a concentration of 66.6 μM or 200 μM. Solubilizations and dilutions were performed in polystyrene containers.
Recombinant human tumor necrosis factor-α (TNF, Genzyme, Boston, Mass., code TNF-H) was prepared at 400 U/mL in S-EBM. Stock TNF was prepared to 20,000 U/mL in Delbecco's phosphate-buffered saline (PBS, Gibco, Grand Island N.Y.) plus 0.1% BSA and stored at -70° C. HUVEC were washed one time with 0.2 mL warm unsupplemented EBM and then stimulated for 4hours at 37° C. with 200 U/mL TNF in the presence of 33.3 μM or 100 μM test compound. This was accomplished by adding 0.1 mL of 400 U/mL TNF and 0.1 mL 66.6 μM or 0.1 mL of 200 μM test compound. These additions were done slowly as to not disrupt the HUVEC monolayer. Each compound was tested in six wells. Unstimulated (vehicle control) and TNF-stimulated without test compound treatments were also run in each plate.
One hour prior to adding the neutrophils (isolated as previously described) to the HUVEC, neutrophils (5×10^6 /mL) were labeled for 30 minutes at 37° C. with 5 μM calcine-AM (Molecular Probes, Eugene, Oreg.) in Hanks' balanced salt solution plus 0.45% BSA. Stock calcein was prepared to 5mM in anhydrous DMSO and stored desiccated at -20° C. At the end of the incubation the cells were washed two times in cold HBSS and resuspended to a final concentration of 1×10^6 cells/mL in unsupplemented EBM.
At the end of the 4-hour stimulation and immediately prior to the addition of the neutrophils to the HUVEC monolayer, the plates were washed with 0.2 ml warm unsupplemented EBM to remove TNF and drug. Neutrophils (1×10^5 cells) were slowly added to each of the treated wells and incubated for 30 minutes at 37° C. At the end of the incubation the plates were washed two times with 0.2 mL warm unsupplemented EBM followed by a final addition of 0.1 mL for plate scanning.
The fluorescence was determined using a Millipore Cytofluor 2300 system (excitation=480, emission=530, sensitivity=4). […]

| Compound | inhibition at 33 µM |
| --- | --- |
| CSc1ccc2sc(C(N)=O)c(N(C)C)c2c1 [Example 21, 3-Dimethylamino-5-(methylthio)benzo[b]thiophene-2-carboxamide] | 53% |
| CC(C)Sc1c(C(N)=O)sc2ccc(OCc3ccccc3)cc12 [Example 17, 3-[(1-Methylethyl)thio]-5-(phenylmethoxy)benzo[b]thiophene-2-carboxamide] | 24% |
| NC(=O)c1oc2cccc(Cl)c2c1N [Example 26, 3-Amino-4-chloro-2-benzofurancarboxamide] | 24% |
| CN(C)c1c(C(N)=O)sc2cccc(Cl)c12 [Example 18, 4-Chloro-3-(dimethylamino)benzo[b]thiophene-2-carboxamide] | 10% |
| COc1ccc2sc(C(N)=O)c(SCc3ccccc3)c2c1 [Example 6, 5-Methoxy-3-[(phenylmethyl)thio]benzo[b]thiophene-2-carboxamide] | 35% |
| COc1ccc2sc(C(=O)Nc3ccc(C(=O)O)cc3)c(SC(C)C)c2c1 [Example 8, 4-[[[5-Methoxy-3[(1-methylethyl)thio]benzo[b]thien-2yl]carbonyl]amino]benzoic acid] | 13% |
| CC(C)Sc1c(C(N)=O)sc2cccc(Cl)c12 [Example 12, 4-Chloro-3-[(1-methylethyl)thio]benzo[b]thiophene-2-carboxamide] | 34% |
| COC(=O)c1ccc(NC(=O)c2sc3ccc(OC)cc3c2SC(C)C)cc1 [Example 7, Methyl 4-[[[5-methoxy-3-[(1-methylethyl)thio]benzo[b]thien-2yl]carbonyl]amino]benzoate] | 19% |

same assay, conditions: 100 μM, neutrophils labeled with calcein, read-out: Adhesion ECA, % inhibition

| Compound | inhibition at 100 µM |
| --- | --- |
| CC(C)Oc1c(C(=O)Nc2ccccc2)oc2ccc(Cl)cc12 [Example 31, 5-Chloro-3-(1-methylethoxy)-N-phenyl-2-benzofurancarboxamide] | 11% |
| CC(C)Oc1c(C(N)=O)oc2ccc(-c3ccccc3)cc12 [Example 37, 3-(1-Methylethoxy)-5-phenyl-2-benzofurancarboxamide] | 68% |
| COc1ccc2c(c1)c(Nc1ccccc1)c(C(N)=O)[s+]2[O-] (centres unmarked) [Example 24, 5-Methoxy-3-(phenylamino)benzo[b]thiophene-2-carboxamide-1-oxide] | 21% |
| CC(C)Oc1c(C(=O)NCc2ccccc2)oc2ccccc12 [Example 35, 3-(1-Methylethoxy)-N-(phenylmethyl)-2-benzofurancarboxamide] | 61% |

same assay, conditions: footnote a, neutrophil label not given, IC50 by linear regression from 33.3, 10.0, 3.3 and 1.0 μM, read-out: Adhesion ECA, IC50

| Compound | IC50 |
| --- | --- |
| COc1ccc2sc(C(N)=O)c(SC(C)C)c2c1 [Example 1, 5-Methoxy-3-[(1-methylethyl)thio]benzo[b]thiophene-2-carboxamide] | 11.7 µM |

test system: human neutrophil adhesion to TNF-α-stimulated human umbilical vein endothelial cells (HUVEC); assay: Inhibition of human neutrophil adhesion to TNF-α-stimulated human umbilical vein endothelial cells (51Cr-labeled neutrophils); type: cell-based; settings: neutrophils labeled with Cr, read-out: Adhesion ECA, % inhibition
Protocol: as §1
Method for Determining the Inhibition of Human Neutrophil Adhesion to TNF-α, IL-1α, and LPS-Stimulated Human Umbilical Vein Endothelial Cells
as §2
Second passage human umbilical vein endothelial cells (HUVEC) (Clonetics, San Diego, Calif.) were seeded into Falcon 24-well cell culture plates (Becton Dickinson, Lincoln Park, N.J.) at approximately 2×10^4 cells per well. The cells were grown to confluent monolayers in endothelial basal medium (EBM, Clonetics) supplemented with 5% fetal calf serum (Hyclone Laboratories, Logan, Utah), 10 ng/mL EGF, 1 μg/mL hydrocortisone, 0.4% bovine brain extract (Clonetics) in 5% CO2 at 37° C.
Neutrophils (30×10^6) were labeled for 60 minutes at 37° C. with 100 μCi Na^51 CrO4 (ICN Biomedicals, Costa Mesa, Calif.) in 2.0 mL Ca^2+ - and Mg^2+ -free Hanks' balanced salt solution (HBSS, GIBCO Laboratories, Grand Island, N.Y.). […]
Stimulation of HUVEC with tumor necrosis factor-α (TNF-α) (Genzyme, Cambridge, Mass.), interleukin (IL-1α) (Genzyme) or E. coli 0111: B4 lipopolysaccharide (LPS) (Sigma) in the presence or absence of drug was initiated 4 hours prior to the addition of neutrophils. […] Lysates were collected and the radioactivity in each well was determined by gamma ray spectroscopy.

| Compound | inhibition at 100 µM |
| --- | --- |
| CC(C)Sc1c(C(N)=O)sc2ccccc12 [Example 2, 3-[(1-Methylethyl)thio]benzo[b]thiophene-2-carboxamide] | 34% |
| COc1ccc2sc(C(N)=O)c(SC)c2c1 [Example 4, 5-Methoxy-3-(methylthio)benzo[b]thiophene-2-carboxamide] | 81% |
| COc1ccc2sc(C(N)=O)c(Sc3ccccc3)c2c1 [Example 5, 5-Methoxy-3-(phenylthio)benzo[b]thiophene-2-carboxamide] | 48% |
